In US8779004B2, “Stable emulsion formulations” (Amgen, Inc., priority 2006, dated 2014):
Marks after values point to notes of the source that are not given here.

Assay: pH and particle size of crude cinacalcet emulsions with different oils and phospholipids
Format: physicochemical
Method: Table 4 illustrates the effect of different oils and phospholipids on pH and particle size of crude emulsions prepared for cinacalcet. The particle size distribution of the droplets was measured using light diffraction techniques after dilution of the emulsion in water. The particle size is represented by D(4,3) which is the volume corrected mean of the particles (units). As used herein, SBO—soybean oil (long chain triglycerides); MCT—medium chain triglycerides; STG—structured triglycerides (including PEGylated oils)
Coarse prototype emulsion formulations were prepared at a batch size of 10 mLs by an Ultraturrax T25 S1 Janke and Kunkel blade homogenizer equipped with a 10 mm rotostator, followed by sonication from a Vibracell Ultrasonicator with a titanium microtip probe. Batches at a 40 mL size were prepared in a similar manner, with the exception of the ultrasonicator having a ¾″ titanium probe tip.
Coarse prototype emulsions at a batch size of 10-40 mLs were prepared by mixing the oil with lecithin by a blade mixer at 60° C. protected by a nitrogen headspace. Cinacalcet was added and mixed well, followed by the addition of the aqueous phase containing glycerin and buffer until a homogenous mixture was made. A sonicator probe was used to further process the emulsion premix while maintaining the nitrogen headspace. Coarse emulsions prepared by sonication were centrifuged at 3K RPM to remove gross particulates on a Dupont Sorval centrifuge, and dispensed by removal of the top contents of the emulsion for evaluation.

[1] = crude emulsion, MCT 5%, 1% Purified Egg Lecithin
[2] = crude emulsion, MCT 5%, 1% Purified Soy Lecithin
[3] = crude emulsion, MCT 5%, 2% Purified Egg Lecithin
[4] = crude emulsion, MCT 5%, % Purified Soy Lecithin
[5] = crude emulsion, MCT 10%, 1% Purified Egg Lecithin
[6] = crude emulsion, MCT 10%, 1% Purified Soy Lecithin
[7] = crude emulsion, MCT 10%, 2% Purified Egg Lecithin
[8] = crude emulsion, MCT 10%, % Purified Soy Lecithin
[9] = crude emulsion, MCT 20%, 1% Purified Egg Lecithin
[10] = crude emulsion, MCT 20%, 1% Purified Soy Lecithin
[11] = crude emulsion, MCT 20%, 2% Purified Egg Lecithin
[12] = crude emulsion, MCT 20%, % Purified Soy Lecithin
[13] = crude emulsion, SBO 5%, 1% Purified Egg Lecithin
[14] = crude emulsion, SBO 5%, 1% Purified Soy Lecithin
[15] = crude emulsion, SBO 5%, 2% Purified Egg Lecithin
[16] = crude emulsion, SBO 5%, % Purified Soy Lecithin
[17] = crude emulsion, SBO 10%, 1% Purified Egg Lecithin
[18] = crude emulsion, SBO 10%, 1% Purified Soy Lecithin
[19] = crude emulsion, SBO 10%, 2% Purified Egg Lecithin
[20] = crude emulsion, SBO 10%, % Purified Soy Lecithin
[21] = crude emulsion, SBO 20%, 1% Purified Egg Lecithin
[22] = crude emulsion, SBO 20%, 1% Purified Soy Lecithin
[23] = crude emulsion, SBO 20%, 2% Purified Egg Lecithin
[24] = crude emulsion, SBO 20%, % Purified Soy Lecithin
[25] = crude emulsion, STG 5%, 1% Purified Egg Lecithin
[26] = crude emulsion, STG 5%, 2% Purified Egg Lecithin
[27] = crude emulsion, STG 10%, 1% Purified Egg Lecithin
[28] = crude emulsion, STG 10%, 2% Purified Egg Lecithin
[29] = crude emulsion, STG 20%, 1% Purified Egg Lecithin
[30] = crude emulsion, STG 20%, 2% Purified Egg Lecithin

C[C@@H](NCCCc1cccc(C(F)(F)F)c1)c1cccc2ccccc12 [Cinacalcet, N-(1-(R)-(1-naphthyl)ethyl]-3-[3-(trifluoromethyl)phenyl]-1-aminopropane]
D(4, 3) [1]: 0.39 µm | pH [1]: 8.58 | D(4, 3) [2]: 0.36 µm | pH [2]: 9.12 | D(4, 3) [3]: 0.35 µm | pH [3]: 8.39 | D(4, 3) [4]: 0.32 µm | PH [4]: 8.97 | D(4, 3) [5]: 0.53 µm | pH [5]: 8.61 | D(4, 3) [6]: 0.21 µm | pH [6]: 9.09 | D(4, 3) [7]: 0.4 µm | pH [7]: 8.29 | D(4, 3) [8]: 0.44 µm | PH [8]: 8.99 | D(4, 3) [9]: 0.57 µm | pH [9]: 8.41 | D(4, 3) [10]: 0.47 µm | pH [10]: 8.81 | D(4, 3) [11]: 0.42 µm | pH [11]: 8.23 | D(4, 3) [12]: 0.31 µm | PH [12]: 8.95 | D(4, 3) [13]: 1.07 µm | pH [13]: 8.81 | D(4, 3) [14]: 1.3 µm | pH [14]: 8.94 | D(4, 3) [15]: 0.77 µm | pH [15]: 8.53 | D(4, 3) [16]: 0.81 µm | PH [16]: 8.99 | D(4, 3) [17]: 0.65 µm | pH [17]: 8.80 | D(4, 3) [18]: 0.98 µm | pH [18]: 8.86 | D(4, 3) [19]: 0.68 µm | pH [19]: 8.46 | D(4, 3) [20]: 0.4 µm | PH [20]: 8.91 | D(4, 3) [21]: 1.42 µm | pH [21]: 8.62 | D(4, 3) [22]: 1.4 µm | pH [22]: 8.73 | D(4, 3) [23]: 1.06 µm | pH [23]: 8.39 | D(4, 3) [24]: 0.49 µm | PH [24]: 8.82 | D(4, 3) [25]: 0.72 µm | pH [25]: 8.55 | pH (crude emulsion, STG 5%, 1% Purified Soy Lecithin): 9.09 | D(4, 3) [26]: 0.52 µm | pH [26]: 8.46 | PH (crude emulsion, STG 5%, % Purified Soy Lecithin): 9.04 | D(4, 3) [27]: 1.23 µm | pH [27]: 8.71 | pH (crude emulsion, STG 10%, 1% Purified Soy Lecithin): 9.00 | D(4, 3) [28]: 0.81 µm | pH [28]: 8.37 | PH (crude emulsion, STG 10%, % Purified Soy Lecithin): 9.01 | D(4, 3) [29]: 0.84 µm | pH [29]: 8.52 | pH (crude emulsion, STG 20%, 1% Purified Soy Lecithin): 8.99 | D(4, 3) [30]: 1.18 µm | pH [30]: 8.28 | PH (crude emulsion, STG 20%, % Purified Soy Lecithin): 9.07 | D(4, 3) (emulsion, STG 5%, 1% Purified Soy Lecithin, after a single autoclaving cycle): 0.40^a | D(4, 3) (emulsion, STG 5%, % Purified Soy Lecithin, after a single autoclaving cycle): 0.34^a | D(4, 3) (emulsion, STG 10%, 1% Purified Soy Lecithin, after a single autoclaving cycle): 0.73^a | D(4, 3) (emulsion, STG 10%, % Purified Soy Lecithin, after a single autoclaving cycle): 0.41^a | D(4, 3) (emulsion, STG 20%, % Purified Soy Lecithin, after a single autoclaving cycle): 0.46^a
